Reference: ChEMBL document CHEMBL1201862, “PubChem BioAssay data set” (2004)
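Growth conditions: 96-well plates. Treatment: test compound, 48 hours, 5 concentrations. Analysis: linear interpolation between bracketing concentrations; unreached endpoints set to highest concentration. GI50 marks 50% less growth.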 The source made the active and inactive calls. Cut-off read from the data, not from the text of the source: active = GI50 up to about 1.1 µM and inactive = higher.

What was measured:
Experiment in all cases: NCI anticancer screen, dose series, 48 h
[1] = test system: NCI-H226
[2] = test system: 786-0
[3] = test system: U-251
[4] = test system: SK-MEL-28
[5] = test system: NCI-H23
[6] = test system: SW-620
[7] = test system: KM12
[8] = test system: K562
[9] = test system: RXF 393
[10] = test system: HT-29
[11] = test system: UACC-62
[12] = test system: TK-10
[13] = test system: M19-MEL
[14] = test system: SNB-19
[15] = test system: MOLT-4
[16] = test system: HL-60
[17] = test system: HOP-92
[18] = test system: PC-3
[19] = test system: NCI/ADR-RES
[20] = test system: T47D

Row | SMILES | GI50 [1] | GI50 [2] | GI50 [3] | GI50 [4] | GI50 [5] | GI50 [6] | GI50 [7] | GI50 [8] | GI50 [9] | GI50 [10] | GI50 [11] | GI50 [12] | GI50 [13] | GI50 [14] | GI50 [15] | GI50 [16] | GI50 [17] | GI50 [18] | GI50 [19] | GI50 [20]
1 | CN(CCN(C)C(=O)CCn1cc(F)c(=O)[nH]c1=O)C(=O)CCn1cc(F)c(=O)[nH]c1=O | > 100 µM (inactive) | > 100 µM (inactive) | > 100 µM (inactive) | > 100 µM (inactive) | > 100 µM (inactive) | > 100 µM (inactive) | > 100 µM (inactive) | > 100 µM (inactive) | > 100 µM (inactive) | > 100 µM (inactive) | > 100 µM (inactive) | > 100 µM (inactive) | > 100 µM (inactive) | > 100 µM (inactive) | > 100 µM (inactive) | > 100 µM (inactive) | – | – | – | –
2 | COC(=O)[C@@H]1CSC(=S)N1C(=O)C[C@H]1CC=CC[C@H]1CC(=O)Sc1ccccc1 | 23.7 µM (inactive) | 17.5 µM (inactive) | 15.5 µM (inactive) | 16.4 µM (inactive) | 21 µM (inactive) | 17.4 µM (inactive) | 15.1 µM (inactive) | 12.1 µM (inactive) | 14.2 µM (inactive) | 19.8 µM (inactive) | 19.3 µM (inactive) | > 10 µM (inactive) | 23.4 µM (inactive) | 18.2 µM (inactive) | 4.29 µM (inactive) | 3.47 µM (inactive) | – | – | – | –
3 | CC(=O)OCC(OC(C)=O)C(OC(C)=O)C(OC(C)=O)C(=O)CNn1c(-c2ccc(C)cc2)nc2ccccc2c1=O (configuration not stated) | – | > 100 µM (inactive) | > 100 µM (inactive) | > 100 µM (inactive) | > 100 µM (inactive) | > 100 µM (inactive) | > 100 µM (inactive) | > 100 µM (inactive) | > 100 µM (inactive) | > 100 µM (inactive) | 60.5 µM (inactive) | – | > 100 µM (inactive) | > 100 µM (inactive) | 82.8 µM (inactive) | 50 µM (inactive) | – | – | – | –
4 | O=C1CC2CCN(C(=O)c3ccccc3)CC2CCN1.O=C1CCC2CC(C(=O)c3ccccc3)CCC2CN1 (configuration not stated) | > 100 µM (inactive) | > 100 µM (inactive) | > 100 µM (inactive) | > 100 µM (inactive) | > 100 µM (inactive) | > 100 µM (inactive) | > 100 µM (inactive) | > 100 µM (inactive) | > 100 µM (inactive) | > 100 µM (inactive) | 52.1 µM (inactive) | – | > 100 µM (inactive) | > 100 µM (inactive) | > 100 µM (inactive) | > 100 µM (inactive) | – | – | – | –
5 | N#Cc1ccccc1NC(=O)c1ccccc1 | – | > 100 µM (inactive) | > 100 µM (inactive) | > 100 µM (inactive) | > 100 µM (inactive) | > 100 µM (inactive) | > 100 µM (inactive) | > 100 µM (inactive) | > 100 µM (inactive) | > 100 µM (inactive) | > 100 µM (inactive) | > 100 µM (inactive) | > 100 µM (inactive) | > 100 µM (inactive) | – | – | > 100 µM (inactive) | – | – | –
6 | C/C(=N\NS(=O)(=O)c1ccccc1)c1ccc[n+]([O-])n1 | – | > 100 µM (inactive) | > 100 µM (inactive) | 62.5 µM (inactive) | > 100 µM (inactive) | 34.8 µM (inactive) | > 100 µM (inactive) | 21 µM (inactive) | – | > 100 µM (inactive) | > 100 µM (inactive) | – | > 100 µM (inactive) | > 100 µM (inactive) | 36.4 µM (inactive) | 21.8 µM (inactive) | 39 µM (inactive) | – | – | –
7 | CCOC(=O)C1C(c2ccc(Br)cc2)N(Cc2ccccc2)C(c2ccc(Br)cc2)C(C(=O)OC)S1(=O)=O (configuration not stated) | 46.8 µM (inactive) | 32.3 µM (inactive) | – | 53.3 µM (inactive) | > 100 µM (inactive) | > 100 µM (inactive) | > 100 µM (inactive) | 87.7 µM (inactive) | 33.6 µM (inactive) | 66.8 µM (inactive) | > 100 µM (inactive) | > 100 µM (inactive) | 74.6 µM (inactive) | 27.5 µM (inactive) | > 100 µM (inactive) | > 100 µM (inactive) | – | – | – | –
8 | CC1(C)CC(=O)c2c(nc3c4c([nH]c(-c5ccc(Br)cc5)c24)CC(C)(C)C3)C1 | 40.8 µM (inactive) | 22 µM (inactive) | 23.8 µM (inactive) | 98.9 µM (inactive) | 52.1 µM (inactive) | 49.3 µM (inactive) | 33.4 µM (inactive) | 18.2 µM (inactive) | 22.8 µM (inactive) | 4.79 µM (inactive) | 53.6 µM (inactive) | 61.1 µM (inactive) | – | 70.3 µM (inactive) | 13.8 µM (inactive) | 43.3 µM (inactive) | 28.7 µM (inactive) | 22.4 µM (inactive) | 33.7 µM (inactive) | 23.2 µM (inactive)
9 | COc1cc(CC(C)C(C)Cc2ccc(O)c(OC)c2)ccc1O (configuration not stated) [DIHYDROGUAIARETIC ACID] | 14.2 µM (inactive) | 19.9 µM (inactive) | 14.8 µM (inactive) | 21 µM (inactive) | 16.9 µM (inactive) | 18.2 µM (inactive) | 14.7 µM (inactive) | 15 µM (inactive) | 13.1 µM (inactive) | 22.5 µM (inactive) | 16.7 µM (inactive) | 34 µM (inactive) | – | 21.8 µM (inactive) | 9.29 µM (inactive) | 9.4 µM (inactive) | 11.7 µM (inactive) | 10.8 µM (inactive) | 16.2 µM (inactive) | 16.3 µM (inactive)
10 | COC(=O)C1(Cc2ccccc2C)Cc2ccc(C)cc2C1=O (configuration not stated) | 34.2 µM (inactive) | 45.6 µM (inactive) | 39 µM (inactive) | 79.8 µM (inactive) | 26.4 µM (inactive) | 45 µM (inactive) | 31.2 µM (inactive) | 42.2 µM (inactive) | 28.6 µM (inactive) | 16.7 µM (inactive) | 40.6 µM (inactive) | 15.5 µM (inactive) | – | 64.6 µM (inactive) | 23.6 µM (inactive) | 15.6 µM (inactive) | 21.6 µM (inactive) | 25.7 µM (inactive) | 16.7 µM (inactive) | 22.8 µM (inactive)
11 | S=C(CSc1ccccc1)Nc1cccc2ccccc12 | 42 µM (inactive) | 41.7 µM (inactive) | 38.8 µM (inactive) | > 100 µM (inactive) | 41.4 µM (inactive) | 55 µM (inactive) | 40.8 µM (inactive) | 40.2 µM (inactive) | > 100 µM (inactive) | 43.1 µM (inactive) | 32.7 µM (inactive) | 36.3 µM (inactive) | – | 76.9 µM (inactive) | 21.6 µM (inactive) | 40.9 µM (inactive) | 56.2 µM (inactive) | 35.6 µM (inactive) | 46 µM (inactive) | 40.3 µM (inactive)
12 | COC(=O)[C@@H]1COC(=O)N1 | > 100 µM (inactive) | > 100 µM (inactive) | > 100 µM (inactive) | > 100 µM (inactive) | > 100 µM (inactive) | > 100 µM (inactive) | > 100 µM (inactive) | > 100 µM (inactive) | > 100 µM (inactive) | > 100 µM (inactive) | > 100 µM (inactive) | > 100 µM (inactive) | – | > 100 µM (inactive) | > 100 µM (inactive) | > 100 µM (inactive) | > 100 µM (inactive) | > 100 µM (inactive) | > 100 µM (inactive) | > 100 µM (inactive)
13 | C[C@H]1[C@H]2[C@H](C[C@@]3(C)C4=CC[C@H]5C(C)(C)[C@@H](OC6OCC(O)C(O)C6O)CC[C@@]56C[C@@]46CC[C@]23C)O[C@@]2(O)[C@@H]1OC(C)(C)[C@H]2O (some centres not stated) | 2.44 µM (inactive) | 1.06 µM (active) | 1.69 µM (inactive) | 2.48 µM (inactive) | 1.09 µM (active) | 1.13 µM (inactive) | 1.48 µM (inactive) | 2.39 µM (inactive) | 1.2 µM (inactive) | 2.61 µM (inactive) | 1.61 µM (inactive) | 1.17 µM (inactive) | – | 2.49 µM (inactive) | 3.96 µM (inactive) | 6.47 µM (inactive) | 1.09 µM (active) | 1.07 µM (active) | 2.67 µM (inactive) | 0.83 µM (active)
14 | CC1CNC(c2ccc(CN3CCC(CCCC4CCN(Cc5ccc(C6=NC(C)CN6)cc5)CC4)CC3)cc2)=N1 (configuration not stated) | 32.9 µM (inactive) | > 100 µM (inactive) | 35 µM (inactive) | > 100 µM (inactive) | > 100 µM (inactive) | 30.5 µM (inactive) | 16.9 µM (inactive) | 35 µM (inactive) | 27.4 µM (inactive) | 30.9 µM (inactive) | 59.8 µM (inactive) | 75.3 µM (inactive) | – | 24.5 µM (inactive) | 19.4 µM (inactive) | > 100 µM (inactive) | 26 µM (inactive) | 36.8 µM (inactive) | > 100 µM (inactive) | 50 µM (inactive)
15 | Cc1c2ncccc2c(C)c2c1[nH]c1ccc(O)cc12 | 6.68 µM (inactive) | 2.91 µM (inactive) | 2.4 µM (inactive) | 13.5 µM (inactive) | 6.58 µM (inactive) | 2.8 µM (inactive) | 3.6 µM (inactive) | 3.44 µM (inactive) | 2.9 µM (inactive) | 6.87 µM (inactive) | 10.2 µM (inactive) | 12.8 µM (inactive) | – | 6.61 µM (inactive) | 0.478 µM (active) | 2.32 µM (inactive) | 4.54 µM (inactive) | 2.76 µM (inactive) | 5.27 µM (inactive) | 8.59 µM (inactive)
16 | CCOC(=O)/C=C(/CN1C(=O)c2ccccc2C1=O)c1ccccc1 | > 100 µM (inactive) | > 100 µM (inactive) | > 100 µM (inactive) | > 100 µM (inactive) | > 100 µM (inactive) | > 100 µM (inactive) | > 100 µM (inactive) | > 100 µM (inactive) | > 100 µM (inactive) | > 100 µM (inactive) | > 100 µM (inactive) | > 100 µM (inactive) | > 100 µM (inactive) | > 100 µM (inactive) | > 100 µM (inactive) | – | > 100 µM (inactive) | – | – | –
